In US10590081B2, “Guanidine compounds and use thereof” (ImmunoMet Therapeutics Inc., priority 2015, dated 2020):
Where a name gives a salt, the structure may show the parent alone.

Tests used:
SK-MEL-28 cells = test: Cytotoxicity in low glucose condition (MTT assay); type: cell-based; settings: Homo sapiens, SK-MEL-28, 72 h, 0.75 mM glucose, 72 hours treatment, read-out: SK-MEL-280.75 mM glucose cell viability (IC50 μM)
Text: Cytotoxicity Assay in Low Glucose Condition
The inhibition of oxidative phosphorylation (OXPHOS) is not cytotoxic to cells in normal glucose condition, because it is postulated that normal cells have compensatory mechanism under energy stress conditions such as low glucose. However OXPHOS inhibitors show cytotoxic effect on cells in the glucose deprived condition (BirsoyK, 2014). The glucose deprived condition is observed in tumor microenvironment potentially due to poor angiogenesis. Therefore the OXPHOS inhibitors may show anti-cancer effect on cancer cells in low glucose condition that may depict tumor microenvironment.
The compounds of the present invention were evaluated their cytotoxicity in SK-MEL-28, melanoma with 0.75 mM glucose supplement. The cytotoxic effect is compared with the cytotoxicity caused by phenformin. The cytotoxicity in low glucose condition is correlated with inhibition of oxygen consumption in mitochondria.
SK-MEL-28 (HTB-72) is a melanoma cell line obtained from ATCC (MA) and cultured in RPMI 1640 media (Lifetechnologies, CA) with supplement of 10% FBS and antibiotic-antimycotic (Lifetechnologies, CA). RPMI 1640 (−Glucose) was used to prepare low glucose media and 0.75 mM glucose was supplied with D-(+)-glucose solution from Sigma. SK-MEL-28 cells were separated from culture plate using 0.5% trypsin-EDTA and 1,250 cells were plated in 96-well plate with low glucose media. After incubation at 37° C. for 24 hour, 5% CO2, the cells were treated with the compounds of present invention in FBS-free media for 72 hours. The cytotoxicity was measured by the MTT (AMRESCO, OH) assay. NADH-dependent cellular oxidoreductase reduces MTT to its insoluble […] with purple color. The enzyme depends on cell number or energy state of cells. 10 μl of 5 mg/ml MTT solution was added to each well of the assay plate and skip the well for blank. The plate was incubated at 37° C. and 5% CO2 for 2 hours. The MTT solution was removed from each well and 100 μl of DMSO was added. The plate was read by VICTOR X3 Multilabel Counter at the wavelength of 550 nm. In Table 2, the levels of IC50 are evaluated by the following criteria.
According to the concentration of compound for killing the half of cell populations (the levels of IC50), the compounds were classified into A, B and C, when the compounds were treated on SK-MEL-28 cells at 0.75 mM glucose.

A549 cells = test: Test for inhibition of OCR and enhancement of ECAR (XF Analyzer); type: cell-based; settings: Homo sapiens, 24 hrs treatment, oxygen consumption rate
Text: Measurement of Mitochondrial Complex I Inhibition
The electron transfer complex in mitochondria is composed of 5 complexes. The complex I accept electrons from NADH produced from glycolysis and TCA cycle and the electrons move to complex […] and the electron is finally transferred to O2 and water molecule is generated. During the electron transfer, proton gradient is generated and the chemical gradient is a driving source to synthesize ATP at complex V. The mitochondrial inhibition of complex I indirectly assessed by measuring the oxygen consumption rate (OCR) at complex IV. […] The solution outside of cells becomes acidic (lower pH) as lactate is transported to outside of cells. OCR and Extracellular acidification rate (ECAR) are determined by XF Analyzer (Seahorse Biosciences).
A549 cells were purchased from American Type Tissue Culture Collection (CCL-185™) and cultured in RPMI 1640 supplied with 10% fetal bovine serum (FBS) and antibiotic-antimycotic (Lifetech, CA). A549 cells were separated with 0.5% Trypsin-EDTA and 3,000 cells were plated on 1 mg/ml poly-D-lysine (Sigma, P6407) coated XF 96 well […]. A549 cells were allowed to adhere to the wells for 24 hours under the condition of temperature, 37° C. and 5% CO2. The sensor cartridge of XF Analyzer was soaked in 200 μl of Calibrant solution (Seahorse, MA) in a clear 96-well plate at 37° C. for 24 hours. The compounds of the present invention were diluted with RPMI 1640 without FBS, transferred to A549 cells on XF 96 well plate, and incubated further for 23 hours at 37° C. and 5% CO2. After incubation, the compound solution was exchanged with pre-warmed and pH adjusted (pH7.4) XF assay media (Seahorse) supplied with 15 mM D-glucose (Sigma), 15 mM sodium pyruvate (Lifetechnologies, CA) and 4 mM L-glutamine (Lifetechnologies, CA). The compounds of present invention were prepared in XF Assay media and added to the assay plate. The assay plate was equilibrated in XF Analyzer for 1 hour, and the reading were started by sensor cartridge. The cytotoxicity assay was followed using Cyquant (Lifetechnologies, CA) in order to calibrate the inhibition with cytotoxicity of compounds. The concentrations of the compounds were tested at 0, 0.5, 1, 5, 10 and 20 μM and IC50 value was obtained from the inhibited values. That is, from OCR inhibition values at each concentration of the compound, IC50 was calculated according to Prism's dose response curve fitting.
In Table 1, the levels of OCR IC50 are evaluated by the following.
According to the test results of the compounds, the compounds were classified into A, B and C.

IC50 (A549 cells)	SMILES	IC50 (SK-MEL-28 cells)
> 4 µM	N=C(NC(=N)N1CCC(F)(F)CC1)Nc1ccc2c(c1)CCCC2 [Example 2, N—(N-(5,6,7,8-teterhydronaphthalene-2-yl)carbamimidoyl)-4,4-difluoro piperidine-1-carboximidamide hydrochloride]	6 to 15 µM
> 4 µM	N=C(NC(=N)N1CCC(F)(F)CC1)Nc1ccc(Cl)c(Cl)c1 [Example 3, N—(N-(3,4-dichlorophenyl)carbamimidoyl)-4,4-difluoropiperidine-1-carboximidamide hydrochloride]	< 6 µM
> 4 µM	N=C(NC(=N)N1CCC(F)(F)CC1)Nc1cccc(Br)c1 [Example 5, N—(N-(3-bromophenyl)carbamimidoyl)-4,4-difluoropiperidine-1-carboximidamide hydrochloride]	6 to 15 µM
> 4 µM	N=C(NC(=N)N1CCC(F)(F)CC1)Nc1ccc(Br)cc1 [Example 6, N—(N-(4-bromophenyl)carbamimidoyl)-4,4-difluoropiperidine-1-carboximidamide hydrochloride]	6 to 15 µM
> 4 µM	CSc1ccc(NC(=N)NC(=N)N2CCC(F)(F)CC2)cc1 [Example 8, N—(N-(4-(methythio)phenyl)carbamimidoyl)-4,4-difluoropiperidine-1-carboximidamide hydrochloride]	6 to 15 µM
> 4 µM	CC(C)c1ccc(NC(=N)NC(=N)N2CCC(F)(F)CC2)cc1 [Example 10, N—(N-(4-isopropylphenyl)carbamimidoyl)-4,4-difluoropiperidine-1-carboximidamide hydrochloride]	6 to 15 µM
> 4 µM	N=C(NC(=N)N1CCC(F)(F)CC1)Nc1ccc(F)c(Cl)c1 [Example 11, N—(N-(3-chloro-4-fluorophenyl)carbamimidoyl)-4,4-difluoropiperidine-1-carboximidamide hydrochloride]	6 to 15 µM
2 to 4 µM	N=C(NC(=N)N1CCC(F)(F)CC1)Nc1ccc(I)c(Cl)c1 [Example 18, N—(N-(3-chloro-4-iodophenyl)carbamimidoyl)-4,4-difluoropiperidine-1-carboximidamide acetate]	
2 to 4 µM	N=C(NC(=N)N1CCC(F)(F)CC1)Nc1ccc(C(F)(F)F)cc1 [Example 21, N—(N-(4-(trifluoromethyl)phenyl)carbamimidoyl)-4,4-difluoropiperidine-1-carboximidamide acetate]	< 6 µM
2 to 4 µM	N=C(NC(=N)N1CCC(F)(F)CC1)Nc1ccc(I)c(Br)c1 [Example 22, N—(N-(3-bromo-4-iodophenyl)carbamimidoyl)-4,4-difluoropiperidine-1-carboximidamide acetate]	< 6 µM
2 to 4 µM	N=C(NC(=N)N1CCC(F)(F)CC1)Nc1ccc(Br)c(Br)c1 [Example 26, N—(N-(3,4-dibromophenyl)carbamimidoyl)-4,4-difluoropiperidine-1-carboximidamide acetate]	6 to 15 µM
< 2 µM	N=C(NC(=N)N1CCC(F)(F)CC1)Nc1ccc(OC(F)(F)F)c(F)c1 [Example 27, N—(N-(3-fluoro-4-(trifluoromethoxy)phenyl)carbamimidoyl)-4,4-fluoropiperidine-1-carboximidamide acetate]	< 6 µM

The remaining lines, values behind:

SMILES	IC50 (A549 cells)	IC50 (SK-MEL-28 cells)
N=C(NC(=N)N1CCC(F)(F)CC1)Nc1ccccc1 [Example 1, N—(N-phenylcarbamimidoyl)-4,4-difluoropiperidine-1-carboximidamide hydrochloride]		> 15 µM
N=C(NC(=N)N1CCC(F)(F)CC1)Nc1ccccc1Br [Example 4, N—(N-(2-bromophenyl)carbamimidoyl)-4,4-difluoropiperidine-1-carboximidamide hydrochloride]		> 15 µM
N=C(NC(=N)N1CCC(F)(F)CC1)Nc1ccc(SC(F)(F)F)cc1 [Example 9, N—(N-(4-(trifluoromethythio)phenyl)carbamimidoyl)-4,4-difluoro piperidine-1-carboximidamide hydrochloride]	2 to 4 µM	< 6 µM
N=C(NC(=N)N1CCC(F)(F)CC1)Nc1cccc(Oc2ccccc2)c1 [Example 13, N—(N-(3-phenoxyphenyl)carbamimidoyl)-4,4-difluoropiperidine-1-carboximidamide hydrochloride]	2 to 4 µM	< 6 µM
N=C(NC(=N)N1CCSC1)Nc1ccc(SC(F)(F)F)cc1 [Example 14, N—(N-(4-(trifluoromethythio)phenyl)carbamimidoyl)thiazolidine-3-carboximidamide hydrochloride]	2 to 4 µM	< 6 µM
N=C(NC(=N)N1CCC(F)(F)CC1)Nc1ccc(OC(F)(F)F)cc1 [Example 17, N—(N-(4-(trifluoromethoxy)phenyl)carbamimidoyl)-4,4-difluoropiperidine-1-carboximidamide acetate]	2 to 4 µM	
N=C(NC(=N)N1CCC(F)(F)CC1)Nc1ccc(Oc2ccccc2)cc1 [Example 23, N—(N-(4-phenoxyphenyl)carbamimidoyl)-4,4-difluoropiperidine-1-carboximidamide acetate]	2 to 4 µM	< 6 µM
N=C(NC(=N)N1CCC(F)(F)C1)Nc1ccc(OC(F)(F)F)cc1 [Example 25, N—(N-(4-(trifluoromethoxy)phenyl)carbamimidoyl)-3,3-difluoropyrrolidine-1-carboximidamide acetate]	2 to 4 µM	< 6 µM
N=C(NC(=N)N1CCC(F)(F)C1)Nc1ccc(Oc2ccccc2)cc1 [Example 28, N—(N-(4-phenoxyphenyl)carbamimidoyl)-3,3-difluoropyrrolidine-1-carboximidamide acetate]	2 to 4 µM	< 6 µM
N=C(NC(=N)N1CCC(F)(F)C1)Nc1cccc(Oc2ccccc2)c1 [Example 29, N—(N-(3-phenoxyphenyl)carbamimidoyl)-3,3-difluoropyrrolidine-1-carboximidamide acetate]	< 2 µM	< 6 µM
N=C(NC(=N)N1CCC(F)(F)C1)Nc1ccc(OC(F)(F)F)c(Br)c1 [Example 39, N—(N-(3-bromo-4-(trifluoromethoxy)phenyl)carbamimidoyl)-3,3-difluoropyrrolidine-1-carboximidamide acetate]	2 to 4 µM	
N=C(NCc1ccccc1Br)NC(=N)N1CCC(F)(F)CC1 [Example 40, N—(N-(2-bromobenzyl)carbamimidoyl)-4,4-difluoropiperidine-1-carboximidamide hydrochloride]	> 4 µM	
N=C(NCc1ccc(Br)cc1)NC(=N)N1CCC(F)(F)CC1 [Example 55, N—(N-(4-bromobenzyl)carbamimidoyl)-4,4-difluoropiperidine-1-carboximidamide acetate]	> 4 µM	
